Like-named read-outs stand apart in the source and are kept apart here. Some results are limits rather than exact numbers.

From patent US7504497B2, “Orally bioavailable compounds and methods for inhibiting platelet aggregation” (Inspire Pharmaceuticals, Inc., priority 2005, dated 2009) come the findings set out here.

The test system of one data set is washed human platelets. The experiment in a line: Inhibition of ADP-induced platelet aggregation in washed human platelets. The data set is classed as cell-based. The note with it: for IC50: ADP agonist challenge typically 1-5 μM, average of two experiments or more; for % inhibition of ADP-induced platelet aggregation at fixed concentration: antagonist at 0.3 μM, ADP typically 1-5 μM. How it is done:
Isolation of Platelets: Human blood is obtained from informed healthy adult volunteers. Blood is collected into one-sixth volume of acid/citrate/dextrose (ACD) buffer (85 mM sodium citrate, 65 mM citric acid, and 110 mM glucose). Collected blood is placed in a water bath at 37° C. for 30 minutes. Blood is then centrifuged at 275×g for 16 minutes at room temperature and the platelet-rich plasma is removed and centrifuged at 2200×g for 13 minutes at room temperature. The platelet pellet is resuspended in 40 mL of HEPES-buffered Tyrode's solution (137 mM NaCl, 2.7 mM KCl, 1 mM MgCl2, 2 mM CaCl2, 12 mM NaHCO3, 0.36 mM NaH2PO4, 5.5 mM glucose, 5 mM HEPES pH 7.4, 0.35% bovine serum albumin or 0.35% human serum albumin) containing 10 U/mL heparin and 5 μM (final concentration) prostaglandin I2 (PGI2). The platelet suspension is incubated in a 37° C. water bath for 10 minutes and then 5 μM (final conc.) PGI2 is added just before centrifugation at 1900×g for 8 minutes. The resulting pellet is resuspended in 40 mL of HEPES-buffered Tyrode's solution containing 5 μM (final concentration) PGI2 and then is incubated for 10 minutes in a 37° C. water bath. A small aliquot (500 μL) of the platelet suspension is removed for platelet counting. Prior to centrifugation 5 μM (final concentration) PGI2 is added to the suspension and then the suspension is centrifuged at 1900×g for 8 minutes. The pellet is resuspended at a density of 5×10^8 cells/mL in HEPES-buffered Tyrode's solution containing 0.05 U/mL apyrase. Aggregation Studies: ADP-induced platelet aggregation is determined by measuring the transmission of light through a 0.5 ml suspension of stirred (1000 rpm) washed platelets in a lumi-aggregometer at 37° C. (Chrono-Log Corp. Havertown, Pa.). The baseline of the instrument is set using 0.5 ml of Hepes-buffered Tyrode's solution. Prior to aggregation measurements, the platelet suspension is supplemented with 1 mg/ml fibrinogen. Platelet aggregation is initiated by the addition of indicated concentrations of ADP or other agonists, and the light transmission is continuously recorded for at least 8 min. When inhibitors of platelet aggregation are tested, platelets are incubated for 2 min in the presence of indicated concentrations of inhibitor before addition of ADP or other agonists, and the response is recorded for at least 8 min. The potency of agonists and inhibitors of platelet aggregation is calculated from both the rate of aggregation and the maximal extent of aggregation obtained for each determination by fitting the data to a four-parameter logistic equation using the GraphPad software package (GraphPad Corp. San Diego, Calif.).
IC50 values represent the concentration of antagonist necessary to inhibit by 50% the aggregation elicited by a given concentration of ADP.
The agonist challenge (ADP) was typically in the range of 1-5 μM. Data are presented in μM and are from the average of two experiments or more.

Data set [1] in a line: Oral bioavailability (%F) following oral vs intravenous administration in rats. The settings on record: rat; for bioavailability: male, Sprague-Dawley, plasma, po. The format is in vivo, male Sprague-Dawley rats. The method, then: These compounds were administered intravenously and orally to compare the extent of absorption by the oral route to the intravenous route and evaluate their ability to inhibit platelet aggregation in vivo. The following brief protocol describes the experiment methodology.
While anesthetized by an inhaled anesthetic, male Sprague-Dawley rats were surgically cannulated in the jugular vein for blood sample collection in order to assess systemic exposure of the compound after oral or intravenous administration and platelet aggregation. For the oral studies, compounds were administered as suspensions of the free acid or sodium salt forms, or as solutions of the sodium salt forms. Animals were allowed 48 hours to recover prior to dose administration.
A blood samples was taken immediately prior to compound administration. This sample was used to assess the baseline platelet aggregation and potential drug interference in the LC/MS/MS analysis. Compound was administered by either oral gavage or tail vein and blood samples were withdrawn for plasma analysis at up to 12 time points ranging from 5 min to 24 hours following compound administration. LC/MS/MS was used to measure the amount of compound in the plasma after both routes of administration and the plasma exposure was compared between the oral and IV routes (%F). %F is the % of the administered dose that is absorbed after oral administration. […] The in vivo platelet aggregation data that was acquired at similar time points was then compared to the plasma concentration and a calculation of the concentration needed to inhibit platelet aggregation was made.
The bioavailability of certain compounds of the present invention was determined following oral administration in rats, according to the protocol of Example 5. The compounds were administered as either a suspension of the free acid forms, a suspension of the sodium salt forms, or as a solution of the sodium salt forms.

Where [2] appears, read: Homo sapiens, Platelet, read-out: PLATELET DATA IC50 Washed Platelets, washed human platelets.
The mark [3] stands for this setting: read-out: PLATELET DATA IC50 Washed Platelets, washed human platelets.
[4] abbreviates: administered as solution of the sodium salt form, read-out: % F, salt solution.
Where [5] appears, read: administered as suspension of the free acid form, read-out: % F, free acid suspension.
The mark [6] stands for this setting: administered as suspension of the sodium salt form, read-out: % F, salt suspension.

The term IC50 denotes the concentration that inhibits the measured activity by half. As for `CCNC(=O)Nc1ncnc2c1ncn2C1OC(COc2cc(F)ccc2C(=O)O)C2O[C@H](/C=C/c3ccccc3)OC21` (some centres unmarked) [Compound 7], the IC50 with washed human platelets (setting [2]) is 385 nM.
Consider `COc1ccc(C(=O)O)c(OCC2OC(n3cnc4c(NC(=O)NCC5CC5)ncnc43)C3O[C@@H](c4ccc(F)cc4)OC23)c1` (some centres unmarked) [Compound 23], for which the IC50 with washed human platelets (setting [2]) is less than 100 nM; in the data set with washed human platelets (setting [3]), 99 nM.
On to `CCCNC(=O)Nc1ncnc2c1ncn2C1OC(COc2ccccc2C(=O)O)C2O[C@H](c3ccc(F)cc3)OC21` (some centres unmarked) [Compound 15], for which the bioavailability in data set [1] (setting [4]) is approximately 53%; in data set [1] (setting [5]), 14.3 to 14.6%; in data set [1] (setting [6]), 29.5 to 29.9%. Besides, in data set [1], the “bioavailability following oral administration (in words)” value is reported as “high bioavailability”. Moreover, in data set [1] (administered as solution of the sodium salt form), the “% F, salt solution” value is given as 52.5-53.4%. In addition, the IC50 with washed human platelets (setting [2]) turned out to be 190 nM.
Turning to `CCNC(=O)Nc1ncnc2c1ncn2C1OC(COc2cccc(F)c2C(=O)O)C2OC(/C=C/c3ccccc3)OC21` (centres unmarked) [Compound 8], the IC50 in the data set with washed human platelets (setting [2]) came to 134 nM.
On the same count and under the same terms, next, `CCNC(=O)Nc1ncnc2c1ncn2C1OC(COc2ccccc2CC(=O)O)C2O[C@H](/C=C/c3ccccc3)OC21` (some centres unmarked) [Compound 6]: 297 nM.
Regarding `CCCNC(=O)Nc1ncnc2c1ncn2C1OC(COc2cccc(F)c2C(=O)O)C2O[C@H](c3ccc(F)cc3)OC21` (some centres unmarked) [Compound 30], the “% inhibition of ADP-induced platelet aggregation at fixed concentration” value (“% inhibition” below) in the data set with washed human platelets (washed human platelets) came out at 56% inh. @ 0.3 μM.
With `CCNC(=O)Nc1ncnc2c1ncn2C1OC(COc2ccccc2CC(=O)O)C2OC(c3ccc(F)cc3)OC21` (centres unmarked) [Compound 11], the IC50 with washed human platelets (setting [2]) amounted to 570 nM.
`COc1cccc(C(=O)O)c1OCC1OC(n2cnc3c(NC(=O)NC4CC4)ncnc32)C2O[C@@H](c3ccc(F)cc3)OC12` (some centres unmarked) [Compound 33]: the “% inhibition” value with washed human platelets (washed human platelets) was determined as 56% inh. @ 0.3 μM.
For `CCNC(=O)Nc1ncnc2c1ncn2C1OC(COc2ccccc2C(=O)O)C2O[C@H](/C=C/c3ccccc3)OC21` (some centres unmarked) [Compound 1], the bioavailability in data set [1] (setting [4]) was approximately 39%; in data set [1] (setting [5]), 8 to 13%. Besides, in data set [1], the “bioavailability following oral administration (in words)” value is on record as “high bioavailability”. Also, in data set [1] (administered as suspension of the free acid form), the “% F, free acid suspension” value was 8.7-13.1%. In addition, the IC50 in the data set on washed human platelets (setting [2]) came out at 319 nM.
Regarding `CCNC(=O)Nc1ncnc2c1ncn2C1OC(COc2ccc(F)cc2C(=O)O)C2O[C@H](/C=C/c3ccccc3)OC21` (some centres unmarked) [Compound 4], the IC50 in the data set with washed human platelets (setting [2]) came out at 105 nM.
Take `CCNC(=O)Nc1ncnc2c1ncn2C1OC(COc2ccc(C)cc2C(=O)O)C2O[C@H](/C=C/c3ccccc3)OC21` (some centres unmarked) [Compound 5]: in the data set with washed human platelets (setting [2]), the IC50 came to 536 nM.
Regarding `CCNC(=O)Nc1ncnc2c1ncn2C1OC(COc2cc(OC)ccc2C(=O)O)C2O[C@H](/C=C/c3ccccc3)OC21` (some centres unmarked) [Compound 3], the IC50 with washed human platelets (setting [2]) was 404 nM.
Take `COc1ccc(C(=O)O)c(OCC2OC(n3cnc4c(NC(=O)NC5CC5)ncnc43)C3O[C@@H](c4ccc(F)cc4)OC23)c1` (some centres unmarked) [Compound 22]: the IC50 in the data set with washed human platelets (setting [2]) is less than 100 nM; in the data set on washed human platelets (setting [3]) it was 99 nM.
As for `CCNC(=O)Nc1ncnc2c1ncn2C1OC(COc2ccc(OC)cc2C(=O)O)C2O[C@H](/C=C/c3ccccc3)OC21` (some centres unmarked) [Compound 9], the IC50 in the data set on washed human platelets (setting [2]) was found to be 744 nM.
The same measure, in the same setting: next, `CCNC(=O)Nc1ncnc2c1ncn2C1OC(COc2ccccc2C(=O)O)C2O[C@H](c3ccc(F)cc3)OC21` (some centres unmarked) [Compound 12]: 200 nM.
Regarding `CCCNC(=O)Nc1ncnc2c1ncn2C1OC(COc2cc(F)ccc2C(=O)O)C2O[C@H](c3ccc(F)cc3)OC21` (some centres unmarked) [Compound 28], the “% inhibition” value with washed human platelets (washed human platelets) was 64% inh. @ 0.3 μM.
Consider `CCNC(=O)Nc1ncnc2c1ncn2C1OC(COc2cc(OC)ccc2C(=O)O)C2OC(c3ccc(F)cc3)OC21` (centres unmarked) [Compound 14, 2-[6-[6-(3-Ethyl-ureido)-purin-9-yl]-2-(4-fluoro-phenyl)-tetrahydro-furo[3,4-d][1,3]dioxol-4-ylmethoxyl]-4-methoxy-benzoic acid], for which the bioavailability is approximately 44% in data set [1] (setting [4]) and 21.5 to 22.1% in data set [1] (setting [6]). For the same compound, the “bioavailability following oral administration (in words)” value in data set [1] is given as “high bioavailability”. For the same compound, the IC50 in the data set with washed human platelets (setting [2]) was less than 100 nM; in the data set with washed human platelets (setting [3]), 96 nM.
Turning to `CCCCNC(=O)Nc1ncnc2c1ncn2C1OC(COc2cc(OC)ccc2C(=O)O)C2O[C@H](c3ccc(F)cc3)OC21` (some centres unmarked) [Compound 21], the IC50 in the data set with washed human platelets (setting [2]) was less than 100 nM; in the data set with washed human platelets (setting [3]), 87 nM.
The matching figures for `CCCCNC(=O)Nc1ncnc2c1ncn2C1OC(COc2c(OC)cccc2C(=O)O)C2O[C@H](c3ccc(F)cc3)OC21` (some centres unmarked) [Compound 19]: less than 100 nM and 62 nM.
The matching figures for `CCNC(=O)Nc1ncnc2c1ncn2C1OC(COc2ccc(F)cc2C(=O)O)C2O[C@H](c3ccc(F)cc3)OC21` (some centres unmarked) [Compound 13]: less than 100 nM and 89 nM.
On to `CCNC(=O)Nc1ncnc2c1ncn2C1OC(COc2c(OC)cccc2C(=O)O)C2O[C@H](/C=C/c3ccccc3)OC21` (some centres unmarked) [Compound 2], for which the IC50 in the data set with washed human platelets (setting [2]) was 279 nM.
With `O=C(Nc1ncnc2c1ncn2C1OC(COc2cc(F)ccc2C(=O)O)C2O[C@H](c3ccc(F)cc3)OC21)NC1CC1` (some centres unmarked) [Compound 35], in the data set with washed human platelets (washed human platelets), the “% inhibition” value is reported as 61% inh. @ 0.3 μM.
Turning to `CCNC(=O)Nc1ncnc2c1ncn2C1OC(COc2c(F)cccc2C(=O)O)C2O[C@H](c3ccc(F)cc3)OC21` (some centres unmarked) [Compound 25], the “% inhibition” value with washed human platelets (washed human platelets) is 46% inh. @ 0.3 μM.
Take `CCCNC(=O)Nc1ncnc2c1ncn2C1OC(COc2cc(OC)ccc2C(=O)O)C2O[C@H](c3ccc(F)cc3)OC21` (some centres unmarked) [Compound 20]: the IC50 is less than 100 nM in the data set on washed human platelets (setting [2]) and 92 nM with washed human platelets (setting [3]).
With `CCNC(=O)Nc1ncnc2c1ncn2C1OC(COc2ccc(OC)cc2C(=O)O)C2O[C@H](c3ccc(F)cc3)OC21` (some centres unmarked) [Compound 34], the “% inhibition” value in the data set with washed human platelets (washed human platelets) is 52% inh. @ 0.3 μM.
